Results as given in patent publication US11179397B2, “Imidazopyrimidine derivatives” (Gilead Sciences, Inc., priority 2018, dated 2021).

molecular target: SHP-2 full length protein (Homo sapiens (Human), UniProt Q06124); test: SHP-2 biochemical DiFMUP pseudosubstrate-fluorogenic assay; conditions: 0.2 nM SHP-2, 1 μM IRS-1 activator peptide, 50 μM DiFMUP; read-out: SHP2 IC50
Experimental: SHP-2 Biochemical Assay Materials Recombinant SHP-2 full length protein was generated in house. SHP-2 protein tyrosine phosphatase (PTP) domain protein (Catalog number SPR0217-20 ug), NaCl (Catalog number S6546-1L), and KCl (Catalog number 60142-500 mL) were purchased from Sigma-Aldrich (St. Louis, Mo.). IRS-1_[…](dPEG8)[…] peptide […]) was custom made by AnaSpec (Fremont, Calif.). DiFMUP substrate (Catalog number D6567), EDTA (Catalog number E177-500 mL), DTT (Catalog number P2325), and 384-well black polystyrene non-binding surface (Catalog number 3820) were purchased from Fisher Scientific (Hanover Park, Ill.). HEPES (Catalog number 15630-080) was purchased from Life Technologies (Pleasanton, Calif.), and Tween-20 (Catalog number 95059-250) was purchased from VWR (Radnor, Pa.). Method Inhibition of SHP-2 activity by small molecule inhibitors was monitored by a biochemical DiFMUP pseudosubstrate-fluorogenic assay. […] The reaction mix was added to the 384-well non-binding plate which had been pre-spotted with 1:3 serial diluted compounds from 10,000-0.005 nM, and incubated at room temperature for 90 min. DiFMUP substrate at final concentration of 50 μM was then added to the wells and incubated for additional 30 min at room temperature. The final reaction volume was 20 μl/well. […] The inhibitor dose response curves were generated using normalized IC50 regression curve fitting by in house dose response analysis tools. The wells with DMSO vehicle were used as controls (100% signal). The percent (%) control of SHP-2 compound was calculated as: (Compound well fluorescence counts/DMSO fluorescence counts)×100%.

SMILES	IC50
Cc1nc(N2CCC3(CCC[C@H]3N)CC2)n2ccnc2c1-c1ccccn1 [Example 6, (R)-8-(7-methyl-8-(pyridin-2-yl)imidazo[1,2-c]pyrimidin-5-yl)-8-azaspiro[4.5]decan-1-amine]	5400 nM
Cc1nc(N2CCC3(CCC[C@H]3N)CC2)n2ccnc2c1Sc1ccc(N)nc1C(F)(F)F [Example 17, (R)-8-(8-((6-amino-2-(trifluoromethyl)pyridin-3-yl)thio)-7-methylimidazo[1,2-c]pyrimidin-5-yl)-8-azaspiro[4.5]decan-1-amine]	9.9 nM
Cc1nc(N2CCC3(CCC[C@H]3N)CC2)n2ccnc2c1-c1cccnc1C(F)(F)F [Example 19, (R)-8-(7-methyl-8-(2-(trifluoromethyl)pyridin-3-yl)imidazo[1,2-c]pyrimidin-5-yl)-8-azaspiro[4.5]decan-1-amine]	> 10000 nM
Cc1noc(C)c1-c1c(C)nc(N2CCC3(CCC[C@H]3N)CC2)n2ccnc12 [Example 20]	> 10000 nM
C[C@@H]1OCC2(CCN(c3ncc(Sc4ccc(N)nc4C(F)(F)F)c4nccn34)CC2)[C@@H]1N [Example 37, (3S,4S)-8-(8-((6-amino-2-(trifluoromethyl)pyridin-3-yl)thio)imidazo[1,2-c]pyrimidin-5-yl)-3-methyl-2-oxa-8-azaspiro[4.5]decan-4-amine]	17 nM
CC1(N)CCN(c2ncc(Sc3ccccc3)c3nccn23)CC1 [Example 49, 4-methyl-1-(8-(phenylthio)imidazo[1,2-c]pyrimidin-5-yl)piperidin-4-amine]	7200 nM
Nc1cc(C(F)(F)F)c(Sc2cnc(N3CCC4(CCC[C@H]4N)CC3)n3ccnc23)cn1 [Example 50, (R)-8-(8-((6-amino-4-(trifluoromethyl)pyridin-3-yl)thio)imidazo[1,2-c]pyrimidin-5-yl)-8-azaspiro[4.5]decan-1-amine]	7500 nM
Nc1ccc(Sc2cnc(N3CCC4(CCC[C@H]4N)CC3)n3ccnc23)c(C(F)(F)F)n1 [Example 51, (R)-8-(8-((6-amino-2-(trifluoromethyl)pyridin-3-yl)thio)imidazo[1,2-c]pyrimidin-5-yl)-8-azaspiro[4.5]decan-1-amine]	15 nM
Nc1cc(Sc2cnc(N3CCC4(CCC[C@H]4N)CC3)n3ccnc23)c(C(F)(F)F)cn1 [Example 53, (R)-8-(8-((2-amino-5-(trifluoromethyl)pyridin-4-yl)thio)imidazo[1,2-c]pyrimidin-5-yl)-8-azaspiro[4.5]decan-1-amine]	12 nM
N[C@@H]1CCCC12CCN(c1ncc(Sc3cncnc3C(F)(F)F)c3nccn13)CC2 [Example 54, (R)-8-(8-((4-(trifluoromethyl)pyrimidin-5-yl)thio)imidazo[1,2-c]pyrimidin-5-yl)-8-azaspiro[4.5]decan-1-amine]	4800 nM

The next lines start with the values.

IC50	SMILES
86 nM	Cc1nc(N2CCC3(CCC[C@H]3N)CC2)n2ccnc2c1-c1cccc2cc[nH]c12 [Example 3]
1800 nM	Cc1nc(N2CCC3(CCC[C@H]3N)CC2)n2ccnc2c1-c1ccncc1 [Example 4, (R)-8-(7-methyl-8-(pyridin-4-yl)imidazo[1,2-c]pyrimidin-5-yl)-8-azaspiro[4.5]decan-1-amine]
26 nM	Cc1nc(N2CCC3(CCC[C@H]3N)CC2)n2ccnc2c1-c1ccccc1Cl [Example 8, (R)-8-(8-(2-chlorophenyl)-7-methylimidazo[1,2-c]pyrimidin-5-yl)-8-azaspiro[4.5]decan-1-amine]
> 10000 nM	Cc1cnn(C)c1-c1c(C)nc(N2CCC3(CCC[C@H]3N)CC2)n2ccnc12 [Example 14, (R)-8-(8-(1,4-dimethyl-1H-pyrazol-5-yl)-7-methylimidazo[1,2-c]pyrimidin-5-yl)-8-azaspiro[4.5]decan-1-amine]
570 nM	Cc1nc(N2CCC3(CCC[C@H]3N)CC2)n2ccnc2c1-c1cc(N)ncc1Cl [Example 16, (R)-8-(8-(2-amino-5-chloropyridin-4-yl)-7-methylimidazo[1,2-c]pyrimidin-5-yl)-8-azaspiro[4.5]decan-1-amine]
> 10000 nM	Cc1nc(N2CCC3(CCC[C@H]3N)CC2)n2ccnc2c1-c1ccccc1C(F)(F)F [Example 21, (R)-8-(7-methyl-8-(2-(trifluoromethyl)phenyl)imidazo[1,2-c]pyrimidin-5-yl)-8-azaspiro[4.5]decan-1-amine]
1700 nM	Cc1nc(N2CCC3(CCC[C@H]3N)CC2)n2ccnc2c1-c1cccnc1 [Example 22, (R)-8-(7-methyl-8-(pyridin-3-yl)imidazo[1,2-c]pyrimidin-5-yl)-8-azaspiro[4.5]decan-1-amine]
> 10000 nM	Cc1nc(N2CCC3(CCC[C@H]3N)CC2)n2ccnc2c1-c1ccnc(C(F)(F)F)c1 [Example 24, (R)-8-(7-methyl-8-(2-(trifluoromethyl)pyridin-4-yl)imidazo[1,2-c]pyrimidin-5-yl)-8-azaspiro[4.5]decan-1-amine]
3.3 nM	Cc1nc(N2CCC3(CC2)C[C@H](O)C[C@H]3N)n2ccnc2c1-c1cccc(Cl)c1Cl [Example 34, (2S,4R)-4-amino-8-(8-(2,3-dichlorophenyl)-7-methylimidazo[1,2-c]pyrimidin-5-yl)-8-azaspiro[4.5]decan-2-ol]
23 nM	CC1(CN)CCN(c2ncc(Sc3cccc(Cl)c3Cl)c3nccn23)CC1 [Example 43, (1-(8-((2,3-dichlorophenyl)thio)imidazo[1,2-c]pyrimidin-5-yl)-4-methylpiperidin-4-yl)methanamine]
> 10000 nM	NC1CCCCN(c2ncc(Sc3cccc(Cl)c3Cl)c3nccn23)C1 (stereo not shown) [Example 59, 1-(8-((2,3-dichlorophenyl)thio)imidazo[1,2-c]pyrimidin-5-yl)azepan-3-amine]
97 nM	Cc1nc(N2CCC3(CCC[C@H]3N)CC2)n2ncnc2c1-c1cccc(Cl)c1Cl [Example 60, (R)-8-(8-(2,3-dichlorophenyl)-7-methyl-[1,2,4]triazolo[1,5-c]pyrimidin-5-yl)-8-azaspiro[4.5]decan-1-amine]
800 nM	Cc1nnc2c(Sc3cccc(Cl)c3Cl)cnc(N3CCC(C)(CN)CC3)n12 [Example 64, (1-(8-((2,3-dichlorophenyl)thio)-3-methyl-[1,2,4]triazolo[4,3-c]pyrimidin-5-yl)-4-methylpiperidin-4-yl)methanamine]
20 nM	Cc1nc(N2CCC3(CCC[C@H]3N)CC2)n2cnnc2c1-c1cccc(Cl)c1Cl [Example 65, (R)-8-(8-(2,3-dichlorophenyl)-7-methyl[1,2,4]triazolo[4,3-c]pyrimidin-5-yl)-8-azaspiro[4.5]decan-1-amine]
550 nM	C[C@@H]1OCC2(CCN(c3ncc(Sc4nccc5ccccc45)c4nccn34)CC2)[C@@H]1N [Example 118, (3S,4S)-8-(8-(isoquinolin-1-ylthio)imidazo[1,2-c]pyrimidin-5-yl)-3-methyl-2-oxa-8-azaspiro[4.5]decan-4-amine]
51 nM	C[C@@H]1OCC2(CCN(c3ncc(Sc4ccnc5cc(C#N)ccc45)c4nccn34)CC2)[C@@H]1N [Example 125, 4-((5-((3S,4S)-4-amino-3-methyl-2-oxa-8-azaspiro[4.5]decan-8-yl)imidazo[1,2-c]pyrimidin-8-yl)thio)quinoline-7-carbonitrile]
9 nM	C[C@@H]1OCC2(CCN(c3ncc(Sc4ccnc5cc(Cl)ccc45)c4nccn34)CC2)[C@@H]1N [Example 134, (3S,4S)-8-(8-((7-chloroquinolin-4-yl)thio)imidazo[1,2-c]pyrimidin-5-yl)-3-methyl-2-oxa-8-azaspiro[4.5]decan-4-amine]

system: NCI-H358 cells; test: NCI-H358 3D tumor spheroid growth inhibition; assay type: cell-based; conditions: Homo sapiens, NCI-H358, 168 h, 3D spheroids, 7 days, 3D CellTiter Glo; cellular IC50 designated EC50; read-out: H358 EC50
Excerpt: SHP-2 Cell Based Assay: […] Materials NCI-H358 cell line was purchased from [NT] number ATCC CRL-5807) (Manassas, Va.). RPMI-1640 (Catalog number 10-040-CM) was from Corning Cellgro (Manassas, Va.), Fetal Bovine Serum (FBS) (Catalog number SH30071.03) was from HyClone (Logan, Utanh), and 100× Penicillin/Streptomycin/L-Glutamine stock (Catalog no. 30-009-CI) and 384-well ULA plates (Catalog number 3830) were from Corning (Fremont, Calif.). Method […] At the day of assay, the cells were trypsinized and seeded at 1000 cells/70 μl/well in 384-well ULA plates and incubated at 37° C. incubator with 5% CO2 to allow spheroids to form. […] The plates were incubated for additional 7 days. Then 35 μl of medium from each well was removed, and replaced with 35 μl of 3D CellTiter Glo reagent from Promega. The wells were mixed by pipetting up and down with Biomek FX for 15 times to induce cell lysis and the plates were incubated at room temperature for additional 10 min to stabilize luminescent signal. The luminescence was then read by Envision. The inhibitor dose response curves were generated using normalized cellular IC50 (designated as EC50 in all FIGURES to distinguish from biochemical IC50s) by in house dose response analyses tools. The wells with DMSO vehicle were used as negative controls (0% inhibition). The % inhibition of SHP-2 compounds was calculated as: 100-[(Compound well luminescence counts/DMSO luminescence counts)×100%].

EC50	SMILES
180 nM	Cc1nc(N2CCC3(CCC[C@H]3N)CC2)n2ccnc2c1-c1cnc(N)c(Cl)c1Cl [Example 27]
> 12500 nM	CC1(N)CCN(c2ncc(Sc3ccnc(N)c3Cl)c3nccn23)CC1 [Example 36]
240 nM	N[C@@H]1CCCC12CCN(c1ncc(Sc3cccc4ncccc34)c3nccn13)CC2 [Example 84]

SMILES	EC50
C[C@@H]1OCC2(CCN(c3ncc(Sc4cc(N)ncc4C(F)(F)F)c4ncc(Cl)n34)CC2)[C@@H]1N [Example 39]	570 nM
